Where two headings read alike, the source gives them in different places.

In patent US9173396B2, “Heterocyclic compounds as pesticides” (BAYER INTELLECTUAL PROPERTY GMBH, priority 2010, dated 2015) one finds pest or weed control, chromatographic logP and effect in % data, which are given here for 29 compounds.

Series [1] has as its system green peach aphid (Myzus persicae). In words: Myzus test (spray treatment). The format is in vivo. The following applies: foliar, 144 h, application rate of 500 g/ha, after 6 days, Chinese cabbage leaf discs, 100% = all aphids killed, read-out: effect in %. How it is done:
Myzus Test (Spray Treatment)
• Solvents: 78 parts by weight of acetone • 1.5 parts by weight of dimethylformamide • Emulsifier: 0.5 part by weight of alkylaryl polyglycol ether
To produce a suitable preparation of active compound, 1 part by weight of active compound is mixed with the stated amounts of solvent and emulsifier, and the concentrate is diluted with emulsifier-containing water to the desired concentration. Discs of Chinese cabbage (Brassica pekinensis) infected by all stages of the green peach aphid (Myzus persicae) are sprayed with an active compound preparation of the desired concentration.
After 6 days, the effect in % is determined. 100% means that all of the aphids have been killed; 0% means that none of the aphids have been killed.

Series [2] deals with greenhouse red spider mite (Tetranychus urticae). Description: Tetranychus test (OP-resistant/spray treatment). It is filed as in vivo. The following applies: application rate of 500 g/ha; after 6 days; bean leaf discs; 100% = all spider mites killed. How it is done: Tetranychus Test (OP-Resistant/Spray Treatment)
• Solvents: 78.0 parts by weight of acetone • 1.5 parts by weight of dimethylformamide • Emulsifier: 0.5 part by weight of alkylaryl polyglycol ether
To produce a suitable preparation of active compound, 1 part by weight of active compound is mixed with the stated amounts of solvent and emulsifier, and the concentrate is diluted with emulsifier-containing water to the desired concentration. Discs of bean leaves (Phaseolus vulgaris) which are infested by all stages of the greenhouse red spider mite (Tetranychus urticae) are sprayed with an active compound preparation of the desired concentration.
After 6 days, the effect in % is determined. 100% means that all of the spider mites have been killed; 0% means that none of the spider mites have been killed.

Setting [3] is: HCOOH (formic acid), logP, HCOOH, Table 1.
Setting [4] is: log P, HPLC-MS, eluent not stated.
The mark [5] stands for this setting: HCOOH (formic acid), log P (HCOOH), HPLC-MS, HCOOH.

For orientation: chromatographic logP means lipophilicity estimated from chromatographic retention. Low readings indicate lower lipophilicity, high ones higher lipophilicity. In the case of `FC(F)(F)c1cccc(-n2cnc(-c3cccnc3)n2)n1` [Compound 6, 2-[3-(Pyridin-3-yl)-1H-1,2,4-triazol-1-yl]-6-(trifluoromethyl)pyridine], the pest or weed control at 500 g/ha in series [1] stood at 100%. Also, the chromatographic logP in “log P by HPLC-MS” (setting [3]) and in the series “log P by HPLC-MS” (setting [4]) was 2.11 in each case.

For the compound `c1cnc(-c2cccc(-n3cnc(-c4cccnc4)c3)n2)nc1` [Compound 3, 2-{6-[4-(Pyridin-3-yl)-1H-imidazol-1-yl]pyridin-2-yl}pyrimidine], the pest or weed control at 500 g/ha in series [1] worked out at 100%. Moreover, the chromatographic logP came out at 0.75 in “log P by HPLC-MS” (setting [5]) and 0.73 in “log P by HPLC-MS” (setting [3]).

With `CC(C)c1nn(-c2cccnc2)c(=O)n1-c1cccc(-c2ncccn2)n1` [Compound 14, 5-Isopropyl-2-(pyridin-3-yl)-4-[6-(pyrimidin-2-yl)pyridin-2-yl]-2,4-dihydro-3H-1,2,4-triazol-3-one], the chromatographic logP in “log P by HPLC-MS” (setting [3]) and in “log P by HPLC-MS” (setting [4]) was 1.77 throughout.

With `COC(=O)c1cccc(-n2ccc(-c3cncc(F)c3)n2)n1` [Methyl 6-[3-(5-fluoro-3-pyridinyl)-1H-pyrazol-1-yl]-2-pyridinecarboxylate], the chromatographic logP in “log P by HPLC-MS” (setting [4]) was 1.07.

`Fc1cncc(-c2cc[nH]n2)c1` [3-(5-fluoro-3-pyridinyl)-1H-pyrazole, 3-(5-Fluoro-3-pyridinyl)-1H-pyrazole] returned a chromatographic logP in “log P by HPLC-MS” (setting [4]) of 0.92.

For `CC1(C)OB(c2coc(-c3cccnc3)c2)OC1(C)C` [3-[4-(4,4,5,5-Tetramethyl-1,3,2-dioxaborolan-2-yl)-2-furyl]pyridine], the chromatographic logP in the series “log P by HPLC-MS” (setting [4]) was 2.25.

As to `Cc1nn(-c2cccnc2)c(=O)[nH]1` [5-Methyl-2-(pyridin-3-yl)-2,4-dihydro-3H-1,2,4-triazol-3-one], the chromatographic logP in “log P by HPLC-MS” (setting [4]) is -0.21.

As to `C[Si](C)(C)C#Cc1cccc(-c2ncccn2)n1` [2-{6-[(Trimethylsilyl)ethynyl]pyridin-2-yl}pyrimidine], the chromatographic logP in the series “log P by HPLC-MS” amounted to 3.11.

As for `O=C(O)c1cccc(-n2ccc(-c3cncc(F)c3)n2)n1` [6-[3-(5-Fluoro-3-pyridinyl)-1H-pyrazol-1-yl]-2-pyridinecarboxylate], the chromatographic logP in the series “log P by HPLC-MS” (setting [4]) is 1.81.

As for `CCc1nn(-c2cccnc2)c(=O)n1-c1cccc(-c2ncccn2)n1` [Compound 15, 5-Ethyl-2-(pyridin-3-yl)-4-[6-(pyrimidin-2-yl)pyridin-2-yl]-2,4-dihydro-3H-1,2,4-triazol-3-one], the chromatographic logP in “log P by HPLC-MS” (setting [3]) turned out to be 1.48.

As to `c1cnc(-c2cccc(-c3cn(-c4cccnc4)nn3)n2)nc1` [Compound 10, 2-{6-[1-(Pyridin-3-yl)-1H-1,2,3-triazol-4-yl]pyridin-2-yl}pyrimidine], in series [1], the pest or weed control at 500 g/ha stood at 100%. In addition, the chromatographic logP in the series “log P by HPLC-MS” (setting [3]) and in “log P by HPLC-MS” (setting [4]) was 1.39 throughout.

For `CCc1nn(-c2cccnc2)c(=O)n1N` [4-Amino-5-ethyl-2-(pyridin-3-yl)-2,4-dihydro-3H-1,2,4-triazol-3-one], the chromatographic logP in the series “log P by HPLC-MS” (setting [4]) amounted to 0.32.

`CC(C)c1nn(-c2cccnc2)c(=O)[nH]1` [5-Isopropyl-2-(pyridin-3-yl)-2,4-dihydro-3H-1,2,4-triazol-3-one]: the chromatographic logP in the series “log P by HPLC-MS” (setting [4]) was determined as 0.71.

For `c1cnc(-c2cccc(-c3ncc(-c4cccnc4)s3)n2)nc1` [Compound 17, 2-{6-[5-(Pyridin-3-yl)-1,3-thiazol-2-yl]pyridin-2-yl}pyrimidine], the pest or weed control at 500 g/ha in series [1] was 100%. For the same compound, the chromatographic logP in “log P by HPLC-MS” (setting [3]) and in “log P by HPLC-MS” (setting [4]) was 1.79 in each case.

As for `CN(C)S(=O)(=O)NC(=O)c1cccc(-n2ccc(-c3cncc(F)c3)n2)n1` [Compound 22, 6-[3-(5-Fluoro-3-pyridinyl)-1H-pyrazol-1-yl]-N-[(dimethylamino)sulfonyl]-2-pyridinecarboxamide], the chromatographic logP in the series “log P by HPLC-MS” (HPLC-MS, log P, eluent not stated) is 2.61; in “log P by HPLC-MS” (HPLC-MS, logP, HCOOH, Table 2), 2.61.

For the compound `c1cnc(-c2cccc(-c3nccs3)n2)nc1` [2-[6-(1,3-Thiazol-2-yl)pyridin-2-yl]pyrimidine], the chromatographic logP in the series “log P by HPLC-MS” (setting [4]) worked out at 1.43.

For `CC(C)c1nn(-c2cccnc2)c(=O)n1N` [4-Amino-5-isopropyl-2-(pyridin-3-yl)-2,4-dihydro-3H-1,2,4-triazol-3-one], in “log P by HPLC-MS” (setting [4]), the chromatographic logP was 0.85.

On to `Cn1nc(-c2cccc(-c3ncccn3)n2)cc1-c1cccnc1` [Compound 2, 2-{6-[1-Methyl-5-(pyridin-3-yl)-1H-pyrazol-3-yl]pyridin-2-yl}pyrimidine], for which the pest or weed control at 500 g/ha in series [1] turned out to be 100%. The chromatographic logP in “log P by HPLC-MS” (setting [5]) and in “log P by HPLC-MS” (setting [3]) was 1.26 each time.

For the compound `C#Cc1cccc(-c2ncccn2)n1` [2-(6-ethynylpyridin-2-yl)pyrimidine, 2-(6-Ethynylpyridin-2-yl)pyrimidine], in “log P by HPLC-MS” (setting [4]), the chromatographic logP amounted to 1.05.

For `c1cnc(-c2cccc(-c3cnc(-c4cccnc4)o3)n2)nc1` [Compound 7, 2-{6-[2-(Pyridin-3-yl)-1,3-oxazol-5-yl]pyridin-2-yl}pyrimidine], the pest or weed control at 500 g/ha in series [1] is 100%. This compound yielded an effect in % in series [2] of 100%. The chromatographic logP in “log P by HPLC-MS” (setting [3]) and in the series “log P by HPLC-MS” (setting [4]) was 1.39 in each case.

In the series “log P by HPLC-MS” (HCOOH (formic acid)), `Cn1nc(-c2cccc(Br)n2)cc1-c1cccnc1` [2-Bromo-6-[1-methyl-5-(pyridin-3-yl)-1H-pyrazol-3-yl]pyridine] returned a chromatographic logP of 1.94.

`Fc1cncc(-c2cnc(-c3cccc(-c4ncccn4)n3)s2)c1` [Compound 21, 2-{6-[5-(5-Fluoropyridin-3-yl)-1,3-thiazol-2-yl]pyridin-2-yl}pyrimidine]: in series [1], the pest or weed control at 500 g/ha was 90%. For the same compound, the chromatographic logP in “log P by HPLC-MS” (HPLC-MS, logP, HCOOH, Table 2) was 2.13; in “log P by HPLC-MS” (setting [4]) it was 2.13.

For the compound `CCc1nn(-c2cccnc2)c(=O)[nH]1` [5-Ethyl-2-(pyridin-3-yl)-2,4-dihydro-3H-1,2,4-triazol-3-one], the chromatographic logP in the series “log P by HPLC-MS” (setting [4]) was found to be 0.3.

Consider `Brc1cccc(-c2cc(-c3cccnc3)no2)n1` [Compound 1, 2-Bromo-6-[3-(pyridin-3-yl)-1,2-oxazol-5-yl]pyridine], for which the pest or weed control at 500 g/ha in series [1] was 100%. Also, the chromatographic logP in “log P by HPLC-MS” (setting [5]) and in “log P by HPLC-MS” (setting [3]) was 2.23 in each case.

Consider `CN(C)C=CC(=O)c1cncc(F)c1` (mixture of isomers) [(E/Z)-3-(Dimethylamino)-1-(5-fluoro-3-pyridinyl)-2-propen-1-one], for which the chromatographic logP in the series “log P by HPLC-MS” (setting [4]) was found to be 0.91.

As for `Cc1nn(-c2cccnc2)c(=O)n1-c1cccc(-c2ncccn2)n1` [Compound 16, 5-methyl-2-(pyridin-3-yl)-4-[6-(pyrimidin-2-yl)pyridin-2-yl]-2,4-dihydro-3H-1,2,4-triazol-3-one], the chromatographic logP in “log P by HPLC-MS” (setting [3]) was 1.17.

For the compound `c1cnc(-c2cccc(-c3coc(-c4cccnc4)c3)n2)nc1` [Compound 11, 2-{6-[5-(Pyridin-3-yl)-3-furyl]pyridin-2-yl}pyrimidine], the chromatographic logP in the series “log P by HPLC-MS” (setting [3]) and in the series “log P by HPLC-MS” (setting [4]) was 1.26 in each case.

Consider `c1cnc(-c2cccc(-n3ccc(-c4cccnc4)n3)n2)nc1` [Compound 13, 2-{6-[3-(Pyridin-3-yl)-1H-pyrazol-1-yl]pyridin-2-yl}pyrimidine], for which the chromatographic logP in the series “log P by HPLC-MS” (setting [3]) and in the series “log P by HPLC-MS” (setting [4]) was 1.2 in each case.

Turning to `c1cnc(-c2cccc(-n3cc(-c4cccnc4)cn3)n2)nc1` [Compound 9, 2-{6-[4-(Pyridin-3-yl)-1H-pyrazol-1-yl]pyridin-2-yl}pyrimidine], the pest or weed control at 500 g/ha in series [1] turned out to be 100%. Further, the chromatographic logP in “log P by HPLC-MS” (setting [3]) and in the series “log P by HPLC-MS” (setting [4]) was 1.04 each time.
